According to the supplement of paper PMC10307832:

What was measured:
Assay in all cases: relative viability (nuclei count vs DMSO), 5 days (fraction); higher = more cells survive
NCI-H647 = system: NCI-H647
Outline: (§1)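 Values are medians from duplicate plates. Each reflects relative viability, defined as the nuclei count of treated wells over that of vehicle wells. Lung cancer cell lines in 1536-well plates were pin-tool dosed one day after seeding with one drug alone or with a fixed anchor-drug dose plus five library-drug doses (not always all listed) in √10 steps, then fixed, stained and imaged at 4× after 5 days.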

CAL-12T = system: CAL-12T
Outline: as §1

NCI-H1395 = system: NCI-H1395
Outline: as §1

COR-L23 = system: COR-L23
Outline: as §1

NCI-H2170 = system: NCI-H2170
Outline: as §1

NCI-H650 = system: NCI-H650
Outline: as §1

NCI-H2023 = system: NCI-H2023
Outline: as §1

LXF-289 = system: LXF-289
Outline: as §1

A-427 = system: A-427
Outline: as §1

NCI-H1975 = system: NCI-H1975
Outline: as §1

EPLC-272H = system: EPLC-272H
Outline: as §1

HOP-62 = system: HOP-62
Outline: as §1

RERF-LC-KJ = system: RERF-LC-KJ
Outline: as §1

NCI-H596 = system: NCI-H596
Outline: as §1

NCI-H3122 = system: NCI-H3122
Outline: as §1

PC-14 = system: PC-14
Outline: as §1

SK-MES-1 = system: SK-MES-1
Outline: as §1

NCI-H1651 = system: NCI-H1651
Outline: as §1

NCI-H1993 = system: NCI-H1993
Outline: as §1

LCLC-103H = system: LCLC-103H
Outline: as §1

NCI-H2085 = system: NCI-H2085
Outline: as §1

COR-L 105 = system: COR-L 105
Outline: as §1

NCI-H2087 = system: NCI-H2087
Outline: as §1

Cc1cnc(-c2cnc(NCCNc3ccc(C#N)cn3)nc2-c2ccc(Cl)cc2Cl)[nH]1 + COc1cccc2cc(-c3nc([C@H]4CC[C@H](C(=O)O)CC4)n4ncnc(N)c34)[nH]c12 [OSI-027] (partner 0.5 µM)
relative viability (NCI-H647; first compound 0.08 µM): 0.752 | relative viability (NCI-H647; first compound 0.253 µM): 0.512 | relative viability (NCI-H647; first compound 0.8 µM): 0.725 | relative viability (NCI-H647; first compound 2.53 µM): 0.55 | relative viability (CAL-12T; first compound 0.08 µM): 0.774 | relative viability (CAL-12T; first compound 0.253 µM): 0.59 | relative viability (CAL-12T; first compound 0.8 µM): 0.565 | relative viability (CAL-12T; first compound 2.53 µM): 0.571 | relative viability (NCI-H1395; first compound 0.08 µM): 0.828 | relative viability (NCI-H1395; first compound 0.253 µM): 0.525 | relative viability (NCI-H1395; first compound 0.8 µM): 0.602 | relative viability (NCI-H1395; first compound 2.53 µM): 0.67 | relative viability (COR-L23; first compound 0.08 µM): 0.805 | relative viability (COR-L23; first compound 0.253 µM): 0.762 | relative viability (COR-L23; first compound 0.8 µM): 0.885 | relative viability (COR-L23; first compound 2.53 µM): 0.906 | relative viability (NCI-H2170; first compound 0.08 µM): 0.732 | relative viability (NCI-H2170; first compound 0.253 µM): 0.554 | relative viability (NCI-H2170; first compound 0.8 µM): 0.705 | relative viability (NCI-H2170; first compound 2.53 µM): 0.609 | relative viability (NCI-H650; first compound 0.08 µM): 0.571 | relative viability (NCI-H650; first compound 0.253 µM): 0.517 | relative viability (NCI-H650; first compound 0.8 µM): 0.582 | relative viability (NCI-H650; first compound 2.53 µM): 0.486 | relative viability (NCI-H2023; first compound 0.08 µM): 0.565 | relative viability (NCI-H2023; first compound 0.253 µM): 0.395 | relative viability (NCI-H2023; first compound 0.8 µM): 0.431 | relative viability (NCI-H2023; first compound 2.53 µM): 0.715 | relative viability (LXF-289; first compound 0.08 µM): 0.926 | relative viability (LXF-289; first compound 0.253 µM): 0.777 | relative viability (LXF-289; first compound 0.8 µM): 0.882 | relative viability (LXF-289; first compound 2.53 µM): 0.829 | relative viability (A-427; first compound 0.08 µM): 0.547 | relative viability (A-427; first compound 0.253 µM): 0.41 | relative viability (A-427; first compound 0.8 µM): 0.608 | relative viability (A-427; first compound 2.53 µM): 0.653 | relative viability (NCI-H1975; first compound 0.08 µM): 0.839 | relative viability (NCI-H1975; first compound 0.253 µM): 0.647 | relative viability (NCI-H1975; first compound 0.8 µM): 0.6 | relative viability (NCI-H1975; first compound 2.53 µM): 0.399 | relative viability (EPLC-272H; first compound 0.08 µM): 0.342 | relative viability (EPLC-272H; first compound 0.253 µM): 0.261 | relative viability (EPLC-272H; first compound 0.8 µM): 0.304 | relative viability (EPLC-272H; first compound 2.53 µM): 0.317 | relative viability (HOP-62; first compound 0.08 µM): 0.914 | relative viability (HOP-62; first compound 0.253 µM): 0.813 | relative viability (HOP-62; first compound 0.8 µM): 0.972 | relative viability (HOP-62; first compound 2.53 µM): 0.795 | relative viability (RERF-LC-KJ; first compound 0.08 µM): 0.672 | relative viability (RERF-LC-KJ; first compound 0.253 µM): 0.591 | relative viability (RERF-LC-KJ; first compound 0.8 µM): 0.454 | relative viability (RERF-LC-KJ; first compound 2.53 µM): 0.697 | relative viability (NCI-H596; first compound 0.08 µM): 0.846 | relative viability (NCI-H596; first compound 0.253 µM): 0.73 | relative viability (NCI-H596; first compound 0.8 µM): 0.483 | relative viability (NCI-H596; first compound 2.53 µM): 0.668 | relative viability (NCI-H3122; first compound 0.08 µM): 1.4 | relative viability (NCI-H3122; first compound 0.8 µM): 1.05 | relative viability (NCI-H3122; first compound 2.53 µM): 0.967 | relative viability (PC-14; first compound 0.08 µM): 1.21 | relative viability (PC-14; first compound 0.253 µM): 0.673 | relative viability (PC-14; first compound 0.8 µM): 0.76 | relative viability (PC-14; first compound 2.53 µM): 0.643 | relative viability (SK-MES-1; first compound 0.08 µM): 0.738 | relative viability (SK-MES-1; first compound 0.253 µM): 0.594 | relative viability (SK-MES-1; first compound 0.8 µM): 0.528 | relative viability (SK-MES-1; first compound 2.53 µM): 0.777 | relative viability (NCI-H1651; first compound 0.08 µM): 0.797 | relative viability (NCI-H1651; first compound 0.253 µM): 0.589 | relative viability (NCI-H1651; first compound 0.8 µM): 0.71 | relative viability (NCI-H1651; first compound 2.53 µM): 0.801 | relative viability (NCI-H1993; first compound 0.08 µM): 0.568 | relative viability (NCI-H1993; first compound 0.253 µM): 0.49 | relative viability (NCI-H1993; first compound 0.8 µM): 0.536 | relative viability (NCI-H1993; first compound 2.53 µM): 0.577 | relative viability (LCLC-103H; first compound 0.08 µM): 0.46 | relative viability (LCLC-103H; first compound 0.253 µM): 0.413 | relative viability (LCLC-103H; first compound 0.8 µM): 0.428 | relative viability (LCLC-103H; first compound 2.53 µM): 0.473 | relative viability (NCI-H2085; first compound 0.08 µM): 0.812 | relative viability (NCI-H2085; first compound 0.253 µM): 0.786 | relative viability (NCI-H2085; first compound 0.8 µM): 0.677 | relative viability (NCI-H2085; first compound 2.53 µM): 0.756 | relative viability (COR-L 105; first compound 0.08 µM): 0.769 | relative viability (COR-L 105; first compound 0.253 µM): 0.661 | relative viability (COR-L 105; first compound 0.8 µM): 0.694 | relative viability (COR-L 105; first compound 2.53 µM): 0.379 | relative viability (NCI-H2087; first compound 0.08 µM): 0.48 | relative viability (NCI-H2087; first compound 0.253 µM): 0.467 | relative viability (NCI-H2087; first compound 0.8 µM): 0.507 | relative viability (NCI-H2087; first compound 2.53 µM): 0.44
